system: Rattus norvegicus; assay: Prevention of attention deficit/hyperactivity in po dosed spontaneously hypertensive stroke-prone rat assessed as prolongation of cumulative entry latency administered for 30 mins by passive avoidance response test; format: functional; settings: 0.5 h, read-out: MED

SMILES	minimal effective dose [mg/kg]
Fc1ccc(Nc2nc(NCc3ncccn3)nc(Nc3ccc(F)cc3)n2)cc1	0.03
Cl.Nc1nc(Nc2ccc(F)cc2)nc(N(Cc2ccnc(F)c2)c2ccccc2)n1	3
COc1ccc(Nc2nc(NCc3ncccn3)nc(Nc3ccc(F)cc3)n2)cc1	0.3
Fc1ccc(Nc2nc(NCc3ccncn3)nc(Nc3ccc(F)cc3)n2)cc1	0.03
Fc1ccc(Nc2nc(NCc3ncccn3)nc(Nc3ccccc3)n2)cc1	0.1

system: Rattus norvegicus; assay: Prevention of attention deficit/hyperactivity in sc dosed spontaneously hypertensive stroke-prone rat assessed as prolongation of cumulative entry latency administered for 30 mins by passive avoidance response test; format: functional; settings: 0.5 h, read-out: MED

SMILES	minimal effective dose [mg/kg]
COC(=O)C(c1ccccc1)C1CCCCN1 (stereo unspecified) [METHYLPHENIDATE]	0.1
